# Measurements published in patent US20200207734A1, “HETEROCYCLIC COMPOUND AND USE THEREOF” (Takeda Pharmaceutical Company Limited, priority 2017, published 2020).
# Biological target: T1, human orexin type 2 receptor (Homo sapiens, UniProt O43614)
# T1 construct: human orexin type 2 receptor cDNA was inserted into pcDNA3.1(+) plasmid vector (Invitrogen); expressed in transfected cells
# T1 sequence (O43614 1-444): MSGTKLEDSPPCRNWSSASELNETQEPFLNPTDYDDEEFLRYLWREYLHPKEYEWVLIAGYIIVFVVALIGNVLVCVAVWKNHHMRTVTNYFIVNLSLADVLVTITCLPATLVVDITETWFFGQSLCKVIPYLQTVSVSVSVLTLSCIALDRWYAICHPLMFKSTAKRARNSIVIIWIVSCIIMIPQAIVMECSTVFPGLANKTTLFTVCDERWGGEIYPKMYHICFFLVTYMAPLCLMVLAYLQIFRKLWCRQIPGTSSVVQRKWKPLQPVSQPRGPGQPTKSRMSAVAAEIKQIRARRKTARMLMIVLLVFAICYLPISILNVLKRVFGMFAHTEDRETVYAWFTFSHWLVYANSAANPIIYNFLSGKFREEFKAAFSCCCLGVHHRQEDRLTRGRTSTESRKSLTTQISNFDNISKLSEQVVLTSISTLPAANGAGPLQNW
# Assay: Measurement of orexin type 2 receptor agonist activity (calcium fluorescence, CHO cells expressing hOX2R)
# Format: cell-based
# Conditions: test compound 3 μM; CHO cells expressing human OX2 receptor; DMSO = 0%, orexin A (human) = 100%
# Text: To obtain a cell clone stably expressing human orexin type 2 receptor, human orexin type 2 receptor cDNA was inserted into pcDNA3.1(+) plasmid vector (Invitrogen), and a plasmid DNA for expression of human orexin type 2 receptor (pcDNA3.1(+)/hOX2R) was cloned. The plasmid DNA was introduced into CHO-dhfr cell by an electroporation method, and human orexin type 2 receptor expressing clone cells were obtained by limiting dilution method by using G418 drug resistance as a selection marker.
# CHO cells forcibly expressing human OX2 receptor were seeded in each well of 384 well black transparent bottom plate (BD Falcon) at 7,500 cells/well, and cultured for one day in a 5% CO2 incubator at 37° C. After removal of the medium in the cell plate, assay buffer A containing a calcium indicator (HBSS (Thermo Fisher Scientific), 20 mM HEPES (Thermo Fisher Scientific), 0.1% BSA (Wako Pure Chemical Industries, Ltd. or Sigma-Aldrich), 2.5 μg/mL Fluo-4 AM (DOJINDO Chemical), 0.08% Pluronic F127 (DOJINDO Chemical), 1.25 mM probenecid (DOJINDO Chemical)) was added at 30 μL/well. The plate was stood for 30 min in a 5% CO2 incubator at 37° C., and further stood at room temperature for 30 min. A test compound prepared by diluting with assay buffer B (HBSS, 20 mM HEPES, 0.1% BSA) was added at 10 μL/well, and the fluorescence value was measured by FDSSμCELL (Hamamatsu Photonics K.K.) every one sec for 1 min, and thereafter every two sec for 1 min 40 sec. The activity (%) of the test compound was calculated assuming that variation in the fluorescence value when DMSO was added instead of the test compound was 0%, and variation in the fluorescence value when orexin A (human) (PEPTIDE INSTITUTE, INC.) was added at the final concentration of 10 nM was 100%.
row,Compound,"OX2R agonist activity (3 μM, %) [%]"
1,"CS(=O)(=O)N[C@H]1CCCN(C(=O)C2CC2)[C@H]1Cc1cccc(-c2ccccc2)c1 (relative stereo) [Example 93, N-(cis-2-(biphenyl-3-ylmethyl)-1-(cyclopropylcarbonyl)piperidin-3-yl)methanesulfonamide]",101
2,"CC(C)C(=O)N1CCC[C@H](NS(C)(=O)=O)[C@@H]1Cc1cccc(-c2ccccc2)c1 (relative stereo) [Example 95, N-(cis-2-(biphenyl-3-ylmethyl)-1-isobutyrylpiperidin-3-yl)methanesulfonamide]",97
3,"CC(C)OC(=O)N1CCC[C@H](NS(C)(=O)=O)[C@@H]1Cc1cccc(-c2cc(F)ccc2F)n1 (relative stereo) [Example 100, isopropyl cis-2-((6-(2,5-difluorophenyl)pyridin-2-yl)methyl)-3-((methylsulfonyl)amino)piperidine-1-carboxylate]",107
4,"CS(=O)(=O)N[C@H]1CCN(C(=O)OC2CC2)[C@H]1Cc1cccc(-c2ccccc2)c1 (relative stereo) [Example 108, cyclopropyl cis-2-(biphenyl-3-ylmethyl)-3-((methylsulfonyl)amino)pyrrolidine-1-carboxylate]",69
5,"CC(C)OC(=O)N1CCC[C@H](NS(C)(=O)=O)[C@@H]1Cc1cccc(-c2cccc(F)c2F)c1 (relative stereo) [Example 116, isopropyl cis-2-((2′,3′-difluorobiphenyl-3-yl)methyl)-3-((methylsulfonyl)amino)piperidine-1-carboxylate]",106
6,"CC(C)OC(=O)N1CCC[C@H](NS(C)(=O)=O)[C@@H]1Cn1ccc(-c2ccccc2)n1 (relative stereo) [Example 122, isopropyl cis-3-((methylsulfonyl)amino)-2-((3-phenyl-1H-pyrazol-1-yl)methyl)piperidine-1-carboxylate]",82
7,"CS(=O)(=O)N[C@H]1CCCN(C(=O)OC2CC2)[C@H]1Cc1cccc(-c2ccccc2)c1 (relative stereo) [Example 126, cyclopropyl cis-2-(biphenyl-3-ylmethyl)-3-((methylsulfonyl)amino)piperidine-1-carboxylate]",90
8,"CS(=O)(=O)N[C@H]1CCCN(C(=O)Oc2ccccc2)[C@H]1Cc1cccc(-c2ccccc2)c1 (relative stereo) [Example 145, phenyl cis-2-(biphenyl-3-ylmethyl)-3-((methylsulfonyl)amino)piperidine-1-carboxylate]",24
9,"COC(=O)N1CCC[C@H](NS(C)(=O)=O)[C@@H]1Cc1cccc(-c2ccsc2)c1 (relative stereo) [Example 159, methyl cis-3-((methylsulfonyl)amino)-2-(3-(3-thienyl)benzyl)piperidine-1-carboxylate]",65
10,"CCCS(=O)(=O)N[C@H]1CCCN(C(=O)OC(C)C)[C@H]1Cc1cccc(-c2ccccc2)n1 (relative stereo) [Example 173, isopropyl cis-2-((6-phenylpyridin-2-yl)methyl)-3-((propylsulfonyl)amino)piperidine-1-carboxylate]",68
11,"CC(C)OC(=O)N1CCC[C@H](NS(=O)(=O)C2CC2)[C@@H]1Cc1cccc(-c2ccccc2)n1 (relative stereo) [Example 178, isopropyl cis-3-((cyclopropylsulfonyl)amino)-2-((6-phenylpyridin-2-yl)methyl)piperidine-1-carboxylate]",99
12,"CC(C)OC(=O)N1CCC[C@H](NS(=O)(=O)CCl)[C@@H]1Cc1cccc(-c2ccccc2)n1 (relative stereo) [Example 181, isopropyl cis-3-(((chloromethyl)sulfonyl)amino)-2-((6-phenylpyridin-2-yl)methyl)piperidine-1-carboxylate]",100
13,"CC(C)OC(=O)N1CCC[C@H](NS(=O)(=O)N(C)C)[C@@H]1Cc1cccc(-c2ccccc2)n1 (relative stereo) [Example 185, isopropyl cis-3-((dimethylsulfamoyl)amino)-2-((6-phenylpyridin-2-yl)methyl)piperidine-1-carboxylate]",99
14,"C=C(C)c1cccc(C[C@H]2[C@@H](NS(=O)(=O)C3CC3)CCCN2C(=O)OC(C)C)n1 (relative stereo) [Example 191, isopropyl cis-3-((cyclopropylsulfonyl)amino)-2-((6-(prop-1-en-2-yl)pyridin-2-yl)methyl)piperidine-1-carboxylate]",79
15,"CN(C)C(=O)N1CCC[C@H](NS(C)(=O)=O)[C@@H]1Cc1cccc(-c2ccccc2)c1 (relative stereo) [Example 204, cis-2-(biphenyl-3-ylmethyl)-N,N-dimethyl-3-((methylsulfonyl)amino)piperidine-1-carboxamide]",95
16,"CS(=O)(=O)N[C@H]1CCN(C(=O)C2CC2)[C@H]1Cc1cccc(-c2ccccc2)c1 (relative stereo) [Example 206, N-(cis-2-(biphenyl-3-ylmethyl)-1-(cyclopropylcarbonyl)pyrrolidin-3-yl)methanesulfonamide]",94
17,"CC(C)C(=O)N1CC[C@H](NS(C)(=O)=O)[C@@H]1Cc1cccc(-c2ccccc2)c1 (relative stereo) [Example 209, N-(cis-2-(biphenyl-3-ylmethyl)-1-isobutyrylpyrrolidin-3-yl)methanesulfonamide]",106
18,"CC(C)OC(=O)N1CCC[C@H](NS(C)(=O)=O)[C@@H]1CC1CCCN(c2ccccc2)C1 (relative stereo) [Example 214, isopropyl cis-3-((methylsulfonyl)amino)-2-((1-phenylpiperidin-3-yl)methyl)piperidine-1-carboxylate]",70
19,"CC(C)(C)C(=O)N1CC[C@H](NS(C)(=O)=O)[C@@H]1Cc1cccc(-c2ccccc2)c1 (relative stereo) [Example 227, N-(cis-2-(biphenyl-3-ylmethyl)-1-(2,2-dimethylpropanoyl)pyrrolidin-3-yl)methanesulfonamide]",99
20,"CS(=O)(=O)N[C@H]1CCN(C(=O)C2CCC2)[C@H]1Cc1csc(-c2cccc(F)c2)n1 (relative stereo) [Example 254, N-(cis-1-(cyclobutylcarbonyl)-2-((2-(3-fluorophenyl)-1,3-thiazol-4-yl)methyl)pyrrolidin-3-yl)methanesulfonamide]",101
21,"CS(=O)(=O)N[C@H]1CCN(C(=O)C2CCC2)[C@H]1Cc1csc(-c2ccccc2F)n1 (relative stereo) [Example 255, N-(cis-1-(cyclobutylcarbonyl)-2-((2-(2-fluorophenyl)-1,3-thiazol-4-yl)methyl)pyrrolidin-3-yl)methanesulfonamide]",101
22,"CS(=O)(=O)N[C@H]1CCN(C(=O)C2CCC2)[C@H]1Cc1csc(-c2cccc(F)c2F)n1 (relative stereo) [Example 256, N-(cis-1-(cyclobutylcarbonyl)-2-((2-(2,3-difluorophenyl)-1,3-thiazol-4-yl)methyl)pyrrolidin-3-yl)methanesulfonamide]",97
23,"CS(=O)(=O)N[C@H]1CCN(C(=O)C2CCC2)[C@H]1Cc1csc(-c2cc(F)cc(F)c2)n1 (relative stereo) [Example 258, N-(cis-1-(cyclobutylcarbonyl)-2-((2-(3,5-difluorophenyl)-1,3-thiazol-4-yl)methyl)pyrrolidin-3-yl)methanesulfonamide]",95
24,"O=C(C1CCC1)N1CC[C@H](NS(=O)(=O)C2CC2)[C@@H]1Cc1csc(-c2ccccc2)n1 (relative stereo) [Example 259, N-(cis-1-(cyclobutylcarbonyl)-2-((2-phenyl-1,3-thiazol-4-yl)methyl)pyrrolidin-3-yl)cyclopropanesulfonamide]",95
